Test results published in US9434688B2, “Indole derivatives as selective androgen receptor modulators (SARMS)” (Janssen Pharmaceutica, NV, priority 2004, dated 2016).

Legend:
androgen receptor [1] = target: T1, androgen receptor (Rattus norvegicus, UniProt P15207); experiment: COS-7 Whole-Cell Androgen Receptor Binding Assay, Adenovirus Transduction; details: COS Binding; for % Inhibition: concentration of 3000 nM unless otherwise noted
T1 sequence (P15207 1-902): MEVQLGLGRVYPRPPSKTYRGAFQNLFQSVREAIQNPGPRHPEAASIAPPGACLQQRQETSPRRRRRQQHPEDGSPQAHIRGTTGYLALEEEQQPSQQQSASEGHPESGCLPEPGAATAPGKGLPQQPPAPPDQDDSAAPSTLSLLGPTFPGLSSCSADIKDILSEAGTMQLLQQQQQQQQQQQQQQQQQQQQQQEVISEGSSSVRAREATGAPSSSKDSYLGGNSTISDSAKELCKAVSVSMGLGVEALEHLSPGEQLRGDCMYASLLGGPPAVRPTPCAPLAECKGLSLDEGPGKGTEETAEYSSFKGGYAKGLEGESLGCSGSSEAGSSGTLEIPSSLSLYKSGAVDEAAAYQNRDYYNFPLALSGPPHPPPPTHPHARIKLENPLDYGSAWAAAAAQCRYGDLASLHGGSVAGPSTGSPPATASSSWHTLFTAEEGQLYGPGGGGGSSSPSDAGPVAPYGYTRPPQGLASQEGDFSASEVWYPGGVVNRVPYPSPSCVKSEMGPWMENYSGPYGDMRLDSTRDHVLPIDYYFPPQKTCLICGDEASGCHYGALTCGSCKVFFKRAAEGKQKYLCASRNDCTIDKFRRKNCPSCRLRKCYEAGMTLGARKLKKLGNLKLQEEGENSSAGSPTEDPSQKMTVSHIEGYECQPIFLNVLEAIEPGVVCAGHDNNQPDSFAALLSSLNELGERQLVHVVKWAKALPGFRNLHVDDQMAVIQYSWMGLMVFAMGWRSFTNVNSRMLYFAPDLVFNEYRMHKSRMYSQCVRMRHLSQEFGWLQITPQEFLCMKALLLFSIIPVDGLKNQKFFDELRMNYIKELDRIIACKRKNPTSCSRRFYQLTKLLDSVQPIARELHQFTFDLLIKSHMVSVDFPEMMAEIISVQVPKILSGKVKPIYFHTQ
Method: COS-7 cells were plated in 96-well plates at 20,000 cells per well, in a solution of DMEM/F12 (GIBCO) containing 10% (v/v) charcoal-treated fetal bovine serum (Hyclone) and lacking phenol red. The cells were then incubated overnight at 37° C. in 5% (v/v) humidified CO2.
Test compound solutions were prepared by diluting the test compound in 100% (v/v) DMSO, if necessary.
Next, 1 mL of DMEM/F12 lacking phenol red was pipetted into each of the wells of a 2-mL 96-well assay block. […] The wells were carefully mixed by pipette.
In a 15 mL or 50 mL sterile centrifuge tube, a dilution in DMEM/F12 of the adenovirus AdEasy+rAR at a moi of 1:50 per well was prepared.
The medium was removed from the 96-well plates by inversion and the plates dried very briefly, inverted, on a sterile towel. As soon as possible after medium removal, 40 μL of the diluted test compound was added to each well, in duplicate. […] The plates were then incubated for 48 hours at 37° C. in 5% (v/v) humidified CO2.
The medium was removed from the above incubated plates by inversion and dried. Each well was then washed with 0.35 mL of 1×PBS. The PBS was then removed from the plates by inversion and the plates dried.
To each well was then added 50 μL of 0.5% (v/v) Triton X-100 (Sigma) in 1×PBS and the plates placed on a rotary shaker for 5 min. The contents of each well were then transferred to an OptiPlate-96 (Packard) scintillation plate. To each well was then added 0.2 mL of Microscint-20 (Packard) and the wells counted on a TopCount (Packard).
Percent inhibition was determined by testing dilutions of the test compound (usually duplicates of 10 μM) in the binding assay. Counts per well were measured and percents of inhibition determined. […] Counts per well were measured and IC50s determined by linear regression.

androgen receptor [2] = target: T1, androgen receptor; experiment: L929 Androgen Receptor Functional Assay, Adenovirus Transduction; type: cell-based; parameters: expressed in transfected cells; host or cells: L929 cells transduced with adenovirus AdEasy+rAR; details: concentration of 3000 nM; for % Activity: L929 agonist testing; for % Inhibition: L929 antagonist testing with R1881
Method: L929 cells were plated in 96-well plates at 20,000 cells per well, in DMEM/F12 (GIBCO) containing 10% (v/v) charcoal-treated fetal bovine serum (Hyclone) and lacking phenol red. The plates were then incubated overnight at 37° C. in 5% (v/v) humidified CO2.
Test compound dilutions were prepared in 100% (v/v) DMSO, if necessary. Each dilution was made to 1250× the final desired assay concentration.
First, 2 mL of DMEM/F12 lacking phenol red was pipetted into the wells of a 2-mL 96-well assay block. Next, 4 μL of the 1250× test compound dilutions were pipetted into each well of the assay block. The mixtures within the well were then carefully mixed by pipette.
In a 15 mL or 50 mL sterile centrifuge tube, a 2.5 nM (2.5×) dilution of R1881 (methyl-trienolone) in DMEM/F12 lacking phenol red was prepared.
In a second 15 mL or 50 mL centrifuge tube a solution containing an equal volume of DMEM to the first and an equal volume of 100% (v/v) DMSO to the volume of R1881 used in the first tube was prepared.
In a 15 mL or 50 mL sterile centrifuge tube, a dilution in DMEM/F12 of the adenovirus AdEasy+rAR at an moi of 1:500 per well was prepared.
The medium was removed from the 96-well plates by inversion and dried, inverted, very briefly. As soon as possible after medium removal, 40 μL of the diluted unlabeled test compound was added to each well, in duplicate. To each well designated for antagonist testing was added 40 μL of the 2.5 nM R1881 dilution to the wells for antagonist testing. To each well designated for agonist testing was added 40 μL of the DMSO dilution. Then 20 μL of the diluted adenovirus were added to all wells. The plates were incubated for 48 hours at 37° C. in 5% (v/v) humidified CO2.
To each well was added 100 μL of Steady-Glo luciferase assay substrate (Promega) and the plates were placed on a rotary shaker for 1 min. The plates were then incubated at room temperature in the dark for one hour. The contents of each well were then transferred to a white microtiter plate (Packard) and read on a Luminoskan Ascent (Thermo Lab Systems).
L929 AR percent activity was determined by testing dilutions of the test compound using a concentration of 3000 nM unless otherwise noted. L929 percent inhibition was determined by testing dilutions of the test compound using a concentration of 3000 nM. […] Luciferase activity per well were measured and EC50s and IC50s determined by linear regression.

androgen receptor [3] = target: T1, androgen receptor; experiment: Androgen Receptor Binding Using Rat Ventral Prostate Cytosol; parameters: from tissue; host or cells: ventral prostate cytosol of castrated male Sprague Dawley or Wistar rats; details: Rat Cytosol; Concentration 3000 nM
Method: Rat Prostate Cytosol Preparation:
Male Sprague Dawley or Wistar rats (Charles River, 200-300 g) were used for each preparation. The day before preparing the cytosol, the rats were castrated using standard surgical procedures.
The rats were euthanized by carbon dioxide asphyxiation. The rat prostates were quickly removed and placed on ice in pre-chilled, pre-weighed 50 mL plastic tubes. No more than five prostates were placed into one tube. The tubes were then weighed and the prostate tissue wet weights calculated.
To the chilled prostate tissue was then added […] of chilled homogenization buffer. The homogenization buffer was freshly prepared by mixing 10 mM Tris.HCl, pH 7.4, 1 mM sodium molybdate, 1.5 mM EDTA, 1 mM dithiothreitol, 10% (v/v) glycerol and 1% protease inhibitor cocktail (Sigma P 8340).
The prostate tissue was homogenized in a cold room using a pre-chilled Polytron PT3000 homogenizer (Brinkmann). Homogenization was performed at a speed setting of 20, three times for 10 sec bursts. The tubes containing the prostate tissue was kept on ice while homogenizing. The homogenate was allowed to rest on ice for 20 sec between bursts.
The homogenate was then placed into pre-chilled 3 mL polycarbonate ultracentrifuge tubes and centrifuged in the TLA-100 rotor of a TL-100 ultracentrifuge for 12 min at 100,000 rpm at 4° C. The resulting supernatant was stored in 1 mL aliquots at −80° C. until needed.
Binding to the androgen receptor was determined according to the protocol described in Example 86 using the above prepared rat cytosol.
% Inhibition was determined by testing dilutions of the test compound (usually duplicates of 10 μM) in the binding assay. Counts per well were measured and percents of inhibition determined. […] Counts per well were measured and IC50s determined by linear regression.

[4] = system: castrated male Sprague Dawley rats; experiment: Ventral Prostate and Seminal Vesicle Weight In Vivo Assay; parameters: species or system rat; key: active: non weight adjusted prostate weight was ≦40 mg or the % Inhibition prostate weight, body weight adjusted was ≧40% @ 2 mg/day dosage; inactive: they did not meet the specified criteria defined above; details: immature castrated male rats, once daily for five days, with testosterone propionate 2 mg/kg subcutaneously
Method: Immature (approximately 50 g) castrated male Sprague Dawley rats (Charles River) were treated once daily for five days with test compound (usually given orally at 40 mg/kg in a volume of 0.3 mL, in 30% cyclodextrin or 0.5% methylcellulose vehicle) and with testosterone propionate (given subcutaneously by injection at the nape of the neck at 2 mg/kg, in a volume of 0.1 mL in sesame oil). On the sixth day, the rats were euthanized by asphyxiation in carbon dioxide. Ventral prostates and seminal vesicles were removed and their wet weights determined.
A test compound was said to be “active” if the non weight adjusted prostate weight was ≦40 mg or the % Inhibition prostate weight, body weight adjusted was ≧40% @ 2 mg/day dosage.

SMILES	% Inhibition (androgen receptor [1])	% Activity (androgen receptor [2])	active / inactive: inhibition of testosterone-enhanced prostate weight [4]	further results
C[S+]([O-])CCC(C)(O)c1cc2cc([N+](=O)[O-])c(C(F)(F)F)cc2[nH]1 (mixture of isomers) [compound 50]	7%	2%		
CC(O)(C[S+]([O-])Cc1ccccc1)c1cc2cc([N+](=O)[O-])c(C(F)(F)F)cc2[nH]1 (mixture of isomers) [compound 161]	20%	2%		% Inhibition (androgen receptor [3]): 39%
CC(O)(CSc1ccc(N)cc1)c1cc2cc(Cl)c(C(F)(F)F)cc2n1S(C)(=O)=O (racemic) [compound 125]	30%	−5%		
COc1ccc(S(=O)(=O)CC(C)(O)c2cc3cc(Cl)c(C(F)(F)F)cc3[nH]2)cc1 (racemic) [compound 129]	10%	−5%		% Inhibition (androgen receptor [2]): −8%; % Inhibition (androgen receptor [3]): 39.5%
COc1ccc(SCC(C)(O)c2cc3cc(Cl)c(C(F)(F)F)cc3n2S(C)(=O)=O)cc1 (racemic) [compound 130]	−8%	−5%		% Inhibition (androgen receptor [3]): 32.55%
CCSCC(C)(O)c1cc2cc(Cl)ccc2n1S(C)(=O)=O (racemic) [compound 154]	50%	2%		% Inhibition (androgen receptor [2]): 7%
CCSCC(C)(O)c1cc2cc(F)c(Cl)cc2[nH]1 (racemic) [compound 206]	−40%	5%	active	
CCSCC(C)(O)c1[nH]c2cc(C(F)(F)F)c([N+](=O)[O-])cc2c1C (racemic) [compound 221]		−1%	inactive	
CC(O)(CSCC(F)(F)F)c1cc2cc([N+](=O)[O-])c(C(F)(F)F)cc2[nH]1 (single isomer, unassigned) [compound 202]	50%	1%		
N#Cc1cc2cc(C3(O)CCSC3)[nH]c2cc1C(F)(F)F (stereo not drawn) [Compound #15]			inactive	
OC1(c2cc3cc(Cl)c(C(F)(F)F)cc3[nH]2)CCSC1 (stereo not drawn) [compound 14]			inactive	
O=[N+]([O-])c1cc2cc(C3(O)CCSC3)[nH]c2cc1C(F)(F)F (stereo not drawn) [compound 18]			inactive	
CSCC(C)(O)c1cc2cc([N+](=O)[O-])c(C(F)(F)F)cc2[nH]1 (stereo not drawn) [compound 139]			active	
CCSCC(C)(O)c1[nH]c2cc(C(F)(F)F)c(Br)cc2c1C (stereo not drawn) [compound 220]				IC50 (androgen receptor [1]): 34 nM
CCSCC(C)(O)c1cc2cc(C#N)c(Cl)cc2[nH]1 (stereo not drawn) [compound 225]			active	
